Assay [1] deals with phage T7. The experiment in a line: Survivor population of phage T7 after sanitizer treatment. It is filed as cell-based. To be noted: 2 min, 4° C.
Assay [2] concerns E. coli O157:H7 cells. It is filed as cell-based, Escherichia coli O157:H7.

Data on two compounds can be found in US20220018836A1, “NON-LIVING SURROGATE INDICATORS AND METHODS FOR SANITATION VALIDATION” (priority 2018, published 2022).

For the compound `OCl` [chlorine, sodium hypochlorite], the “complete inactivation of inoculated phages” value in assay [1] (lowest concentration tested, 2 ppm of free chlorine) is on record as “complete inactivation of inoculated phages was observed”.

In the case of `CC(=O)OO` [PAA, peracetic acid], in assay [2], the “further inactivation of E. coli O157:H7 with an increase of PAA concentration” value is listed as “no significant inactivation”, the “inactivation of E. coli O157:H7 cells” value came to 2 log and the “survivors of E. coli O157:H7” value is “around 4 log”. For the same compound, the “inactivation of phage T7” value in assay [1] (PAA at 80 ppm, 9 log inoculum level) is “more than 6 log”. The “complete inactivation of phages” value in assay [1] (PAA up to 80 ppm, 9 log inoculum level) is reported as “complete inactivation of phages (9 log inoculum level) was not observed”.
